PMC7156629, “Fluorescence anisotropy assays for high throughput screening of compounds binding to lipid II, PBP1b, FtsW and MurJ” (Scientific Reports, 2020)
Entries after “also recorded” stand apart in the source; their conditions may differ. Like-named read-outs stand apart in the source and are kept apart here.

How the values were obtained:
[1] = read-out: Kd (Lipid II), values from the literature, cited from earlier work
[2] = FA direct binding of antibiotics/compounds to NBD-lipid II probe; conditions: for Kd: antibiotic binding to probe 0.33 µM, 10 mM Tris-HCl pH 7.5, 3% DMSO; for Effect on FA signal of the NBD-lipid II probe (direct binding, no protein): increasing compound concentrations, probe 0.33 µM
Description: Serial dilutions of each antibiotic in 10 mM Tris-HCl pH 7.5 and 3% DMSO were prepared in 384-well plates (30 µL) in triplicates. […] Blank samples without antibiotic were also prepared for background fluorescence estimation. […] The data were analysed as described above with [R] and [RL] are, respectively, the equilibrium concentration of the compound and the compound-probe complex.

MurJ [3] = molecular target: T1, MurJ (Escherichia coli, UniProt P0AF16); test: FA competition assay, MurJ:NBD-lipid II; conditions: read-out: Ki values (unlabelled-Lipid II); displacement of probe (0.33 µM) from MurJ (~1 µM)
Description: (§2) Fixed concentrations of NBD-lipid II (0.33 µM) and proteins (~1 µM, 50–80% FA saturation[29]) were used. Serial dilutions of each antibiotic,unlabelled lipid II, or control compounds were prepared in 384-well plates in triplicates. Blank samples without proteins were also prepared for background fluorescence estimation. The mixtures (30 µL) were allowed to reach equilibrium for 20 min at room temperature with gentle shaking and the FA signals were recorded at 21 °C using an Infinite F Plex (Tecan, Männedorf, Switzerland) microplate reader equipped with polarization filters with excitation and emission wavelengths at 485 nm and 535 nm respectively. The data were plotted FA in millianisotropy units (mA) as a function of test compound concentration in µM. For the analysis of the completion data, fluorescence anisotropy values were fitted to the Eq. (3) using GraphPad Prism 6.0 software[30].3 [RL]=[R]/[1+Kd/[L](1+[C]/)Ki] Where [RL] is concentration of the receptor-probe complex; [R] is the concentration of the protein; [L] is the concentration of the probe; [C] is the concentration of test compound; Kd is the dissociation constant between the receptor and the probe (determined above); Ki is dissociation constant between the test compound and its target.

FtsW-PBP3 [4] = molecular target: T2, FtsW-PBP3 (Escherichia coli, UniProt P0ABG4); test: FA competition assay, FtsW-PBP3:NBD-lipid II; conditions: read-out: Ki values (unlabelled-Lipid II); displacement of probe (0.33 µM) from FtsW-PBP3 (~1 µM)
Description: as §2

PBP1b [5] = tested on: PBP1b; design: method as in Terrak, M. et al. Mol. Microbiol. 34 (1999); conditions: ref Terrak, M. et al. Mol. Microbiol. 34 (1999), read-out: Km (Lipid II), values from the literature, cited from earlier work
FtsW [6] = molecular target: T3, FtsW (Escherichia coli, UniProt P0ABG4); test: FA competition assay, FtsW:NBD-lipid II; conditions: read-out: Ki values (unlabelled-Lipid II); displacement of probe (0.33 µM) from FtsW (~1 µM)
Description: as §2

MurJ [7] = molecular target: MurJ; design: method as in Bolla, J. R. et al. Nat. Chem. 10 (2018); conditions: native mass spectrometry, ref Bolla, J. R. et al. Nat. Chem. 10 (2018), read-out: Kd (Lipid II), values from the literature; cited from earlier work
PBP1b [8] = molecular target: T4, PBP1b (Escherichia coli, UniProt P02919); test: FA competition assay, PBP1b:NBD-lipid II; conditions: read-out: Ki values (unlabelled-Lipid II); displacement of probe (0.33 µM) from PBP1b (~1 µM)
Description: as §2

[9] = ref Lo, M. C. et al. J. Am. Chem. Soc. 122 (2000); read-out: IC50 (Lipid II), values from the literature; cited from earlier work
FtsW-PBP3 [10] = molecular target: T2, FtsW-PBP3; test: FA direct binding of NBD-lipid II probe to FtsW-PBP3 complex; design: made in house; species or system E. coli; conditions: probe 0.33 µM
Description: (§1) Fluorescent anisotropy (FA) experiments were performed in a black 384-well plate (Greiner Bio-One Polystyrene Non-Binding Flat Bottom) in triplicates. Serial dilutions of the protein (PBP1bγ, FtsW, FtsW-PBP3 or MurJ) in the appropriate buffer and the NBD-lipid II probe was added at a 0.33 µM final concentration. FtsN was used as a negative control under the same conditions. […] Fluorescence polarization (FP) and anisotropy (A) values were calculated using the equations FP = (I|| − G·I┴)/I||+ G·I┴) and A = 2· FP/3-FP respectively, where I|| is the fluorescence intensity of emitted light parallel to excitation, I┴ is the fluorescence intensity of emitted light perpendicular to excitation, and G is the correction factor that correct for instrument bias. The G factor is experimentally determined using the probe alone. […] For Kd determination, the fluorescence anisotropy data were analysed by nonlinear curve fitting to the Eq. (1) using GraphPad Prism 6.0 software[27].1 (A−Amin)/(Amax−Amin)=[RL]=(Kd+[R]+[L])−[(Kd+R]+[L])^2−4[R][L]]^1/2 Where A, Amin, Amax are the observed, the minimum and the maximum anisotropy, respectively, and [R], [L] and [RL] are the equilibrium concentration of the protein, the probe; and the protein-probe complex, respectively; Kd is the dissociation constant between the protein and the probe.

MurJ [11] = molecular target: T1, MurJ; test: FA direct binding of NBD-lipid II probe to MurJ; design: made in house; species or system E. coli; conditions: probe 0.33 µM
Description: as §1

PBP1b [12] = molecular target: T4, PBP1b; test: Fluorescence anisotropy (FA) direct binding of NBD-lipid II probe to PBP1b; design: made in house; species or system E. coli; conditions: probe 0.33 µM
Description: as §1

FtsW [13] = molecular target: T3, FtsW; test: FA direct binding of NBD-lipid II probe to FtsW; design: made in house; species or system E. coli; conditions: probe 0.33 µM
Description: as §1

FtsN = molecular target: T5, FtsN (Escherichia coli, UniProt P29131); test: FA direct binding of NBD-lipid II probe to FtsN (negative control); conditions: FtsN as negative control
T5 construct: made in house
Description: as §1

T3 sequence (P0ABG4 whole entry): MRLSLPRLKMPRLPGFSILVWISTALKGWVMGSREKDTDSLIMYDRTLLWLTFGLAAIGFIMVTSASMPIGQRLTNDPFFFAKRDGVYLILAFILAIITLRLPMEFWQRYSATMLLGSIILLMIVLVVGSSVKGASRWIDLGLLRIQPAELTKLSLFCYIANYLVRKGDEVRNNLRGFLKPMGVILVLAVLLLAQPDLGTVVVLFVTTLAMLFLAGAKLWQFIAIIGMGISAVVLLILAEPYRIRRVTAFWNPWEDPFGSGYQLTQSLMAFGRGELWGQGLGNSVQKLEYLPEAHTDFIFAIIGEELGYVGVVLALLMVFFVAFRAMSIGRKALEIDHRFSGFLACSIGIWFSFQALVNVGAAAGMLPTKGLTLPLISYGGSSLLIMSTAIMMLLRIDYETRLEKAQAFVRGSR
T2 sequence (P0ABG4 whole entry): as above
T2 sequence (P0AD68 1-577, further chain): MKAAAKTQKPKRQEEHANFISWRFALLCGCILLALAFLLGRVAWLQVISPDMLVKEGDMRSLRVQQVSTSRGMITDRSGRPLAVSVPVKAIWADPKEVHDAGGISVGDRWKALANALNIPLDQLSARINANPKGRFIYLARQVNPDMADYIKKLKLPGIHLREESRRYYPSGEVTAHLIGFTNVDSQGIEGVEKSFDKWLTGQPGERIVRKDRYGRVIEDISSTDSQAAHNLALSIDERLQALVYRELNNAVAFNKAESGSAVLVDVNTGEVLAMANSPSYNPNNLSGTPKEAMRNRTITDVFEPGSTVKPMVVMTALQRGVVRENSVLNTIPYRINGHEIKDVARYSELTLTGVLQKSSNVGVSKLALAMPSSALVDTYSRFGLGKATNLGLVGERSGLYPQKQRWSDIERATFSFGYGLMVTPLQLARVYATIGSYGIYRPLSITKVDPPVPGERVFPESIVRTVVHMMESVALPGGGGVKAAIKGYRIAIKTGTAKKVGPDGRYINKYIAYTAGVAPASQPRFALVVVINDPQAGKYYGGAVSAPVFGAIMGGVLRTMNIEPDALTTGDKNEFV
T4 sequence (P02919 46-844): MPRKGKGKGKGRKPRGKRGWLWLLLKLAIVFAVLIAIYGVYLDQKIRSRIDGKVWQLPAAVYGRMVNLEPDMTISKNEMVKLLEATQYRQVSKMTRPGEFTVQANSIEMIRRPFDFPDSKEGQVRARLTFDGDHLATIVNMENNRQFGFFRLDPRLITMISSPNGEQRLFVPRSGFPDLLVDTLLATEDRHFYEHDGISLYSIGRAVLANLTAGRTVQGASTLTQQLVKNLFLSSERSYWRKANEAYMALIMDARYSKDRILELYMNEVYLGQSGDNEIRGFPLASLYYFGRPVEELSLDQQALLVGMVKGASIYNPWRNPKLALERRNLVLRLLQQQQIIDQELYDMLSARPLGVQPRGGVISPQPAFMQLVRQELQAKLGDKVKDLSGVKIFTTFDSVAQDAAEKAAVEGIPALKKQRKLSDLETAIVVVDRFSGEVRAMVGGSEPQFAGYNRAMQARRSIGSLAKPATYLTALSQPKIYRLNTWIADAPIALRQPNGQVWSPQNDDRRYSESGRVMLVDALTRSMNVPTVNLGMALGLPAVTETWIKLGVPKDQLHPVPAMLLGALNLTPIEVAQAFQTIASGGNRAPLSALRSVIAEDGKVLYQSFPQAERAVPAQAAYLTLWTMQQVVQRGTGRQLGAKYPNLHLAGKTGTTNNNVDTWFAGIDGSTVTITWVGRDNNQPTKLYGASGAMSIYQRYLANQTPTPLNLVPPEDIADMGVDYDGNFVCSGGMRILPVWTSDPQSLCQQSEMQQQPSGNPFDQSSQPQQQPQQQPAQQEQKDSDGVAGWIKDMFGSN
T1 sequence (P0AF16 whole entry): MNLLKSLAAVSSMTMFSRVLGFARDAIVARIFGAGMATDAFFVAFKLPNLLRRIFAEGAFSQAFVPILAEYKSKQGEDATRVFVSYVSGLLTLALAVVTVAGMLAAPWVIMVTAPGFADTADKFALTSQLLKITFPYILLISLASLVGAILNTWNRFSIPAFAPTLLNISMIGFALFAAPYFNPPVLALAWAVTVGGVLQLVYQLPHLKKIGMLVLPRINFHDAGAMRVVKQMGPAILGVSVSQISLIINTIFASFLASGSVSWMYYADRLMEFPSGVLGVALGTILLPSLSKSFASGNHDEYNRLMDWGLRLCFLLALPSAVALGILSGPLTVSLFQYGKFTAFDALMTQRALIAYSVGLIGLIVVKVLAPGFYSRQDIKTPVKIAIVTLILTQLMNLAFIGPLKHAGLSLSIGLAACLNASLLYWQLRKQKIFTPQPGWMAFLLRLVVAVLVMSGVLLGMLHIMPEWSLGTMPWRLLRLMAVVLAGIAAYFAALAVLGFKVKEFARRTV
T5 sequence (P29131 whole entry): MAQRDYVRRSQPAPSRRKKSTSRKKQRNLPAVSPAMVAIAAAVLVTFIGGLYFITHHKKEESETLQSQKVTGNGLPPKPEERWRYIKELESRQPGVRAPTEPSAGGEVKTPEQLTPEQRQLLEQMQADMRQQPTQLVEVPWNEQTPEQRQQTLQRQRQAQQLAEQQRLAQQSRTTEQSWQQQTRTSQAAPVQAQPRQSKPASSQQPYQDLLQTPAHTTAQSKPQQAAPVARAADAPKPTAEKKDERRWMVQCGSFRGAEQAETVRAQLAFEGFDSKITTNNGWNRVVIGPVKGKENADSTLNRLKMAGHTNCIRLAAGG

CN[C@H](CC(C)C)C(=O)N[C@H]1C(=O)N[C@@H](CC(N)=O)C(=O)N[C@H]2C(=O)N[C@H]3C(=O)N[C@H](C(=O)N[C@H](C(=O)O)c4cc(O)cc(O)c4-c4cc3ccc4O)[C@H](O)c3ccc(c(Cl)c3)Oc3cc2cc(c3O[C@@H]2O[C@H](CO)[C@@H](O)[C@H](O)[C@H]2O[C@H]2C[C@](C)(N)[C@H](O)[C@H](C)O2)Oc2ccc(cc2Cl)[C@H]1O [Vancomycin, vancomycin]
Kd ([1]; ref Münch, D. & Sahl, H.-G. Biochim. Biophys. Acta 1848 (2015)): 500 nM
Kd [2]: 300 ± 100 nM
Effect on FA signal of the NBD-lipid II probe (direct binding, no protein) [2]: induced an increase of FA

N[C@@H](Cc1c[nH]c2ccccc12)C(=O)O [tryptophan]
Effect on FA signal of the NBD-lipid II probe (direct binding, no protein) [2]: do not bind to the probe; also recorded: no significant effect on the FA of the probe

CC(=O)N[C@H]1[C@H](O[C@H]2[C@H](O[C@H](C)C(=O)N[C@@H](C)C(=O)N[C@H](CCC(=O)N[C@@H](CCCCN)C(=O)N[C@H](C)C(=O)N[C@H](C)C(=O)O)C(=O)O)[C@@H](NC(C)=O)[C@@H](OP(=O)(O)OP(=O)(O)OC/C=C(/C)CC/C=C(/C)CC/C=C(/C)CC/C=C(/C)CC/C=C(/C)CC/C=C(/C)CC/C=C(/C)CC/C=C(/C)CC/C=C(\C)CC/C=C(\C)CCC=C(C)C)O[C@@H]2CO)O[C@H](CO)[C@@H](O)[C@@H]1O [unlabelled lipid II, undecaprenyl-pyrophosphoryl-MurNAc(pentapeptide)-(beta-1,4)-GlcNAc]
Ki (MurJ [3]): 4600 ± 800 nM
Ki (FtsW-PBP3 [4]): 6800 ± 1000 nM
Km (PBP1b [5]; listed as Lipid II): 1.8 ± 0.8 µM
Km (PBP1b [5]; listed as lipid II): ~2 µM
Effect on FA signal of the NBD-lipid II probe (direct binding, no protein) [2]: no direct effect on the FA of the probe
Effect on FA signal of the NBD-lipid II probe (direct binding, no protein) ([2]; listed as unlabeled lipid II): did not significantly affect the FA signal
Ki (FtsW [6]): 5900 ± 1800 nM
Kd (MurJ [7]): 2900 nM
Ki (PBP1b [8]): 1400 ± 200 nM

CC1(C)S[C@@H]2[C@H](NC(=O)[C@H](N)c3ccccc3)C(=O)N2[C@H]1C(=O)O [Ampicillin]
Effect on FA signal of the NBD-lipid II probe (direct binding, no protein) [2]: no significant effect on the FA of the probe
Effect on FA signal of the NBD-lipid II probe (direct binding, no protein) ([2]; listed as ampicillin): do not bind to the probe

ramoplanin
Kd [2]: 230 ± 50 nM
Effect on FA signal of the NBD-lipid II probe (direct binding, no protein) [2]: induced an increase of FA
IC50 [9]: 300 nM

nisin (ITSISLCTPGCKTGALMGCNMKTATCHCSIHVSK; not fully specified; Lantibiotic nisin-A; UniProt P13068 24-57, looked up)
Kd ([1]; ref 'T Hart, P. et al. Biochemistry 55 (2016)): 14.6 to 50 nM
Kd [2]: 300 ± 100 nM
Effect on FA signal of the NBD-lipid II probe (direct binding, no protein) [2]: induced an increase of FA

C=C(C/C=C(\C)CCC=C(C)C)CCC(C)(C)/C=C/CC/C(C)=C/CO[C@@H](COP(=O)(O)O[C@H]1O[C@H](C(N)=O)[C@@](C)(O)[C@H](OC(N)=O)[C@H]1O[C@@H]1O[C@H](CO[C@@H]2O[C@H](CO)[C@@H](O)[C@H](O)[C@H]2O)[C@@H](O[C@@H]2O[C@H](C)[C@@H](O[C@@H]3O[C@H](C(=O)NC4=C(O)CCC4=O)[C@H](O)[C@H](O)[C@H]3O)[C@H](O)[C@H]2NC(C)=O)[C@H](O)[C@H]1NC(C)=O)C(=O)O [moenomycin A, Moenomycin A]
Effect on FA signal of the NBD-lipid II probe (direct binding, no protein) [2]: did not significantly affect the FA signal
Effect on FA signal of the NBD-lipid II probe (direct binding, no protein) ([2]; listed as Moenomycin): no effect on the FA of the probe

CC(=O)N[C@H]1[C@H](O[C@H]2[C@H](O[C@H](C)C(=O)N[C@@H](C)C(=O)N[C@H](CCC(=O)N[C@@H](CCCCNc3ccc([N+](=O)[O-])c4nonc34)C(=O)N[C@H](C)C(=O)N[C@H](C)C(=O)O)C(=O)O)[C@@H](NC(C)=O)[C@@H](OP(=O)(O)OP(=O)(O)OC/C=C(/C)CC/C=C(/C)CC/C=C(/C)CC/C=C(/C)CC/C=C(/C)CC/C=C(/C)CC/C=C(/C)CC/C=C(/C)CC/C=C(\C)CC/C=C(\C)CCC=C(C)C)O[C@@H]2CO)O[C@H](CO)[C@@H](O)[C@@H]1O [NBD-lipid II, Nitrobenzoxadiazole (NBD)-labelled Lipid II]
Kd (FtsW-PBP3 [10]): 300 ± 100 nM
Kd (MurJ [11]): 1100 ± 300 nM
Kd (PBP1b [12]): 500 ± 200 nM
Kd (FtsW [13]): 300 ± 100 nM
Effect of FtsN on FA of the probe (FtsN): had no effect on the FA of the probe
